Source: patent US10066208B2, “Kit and method for promoting mesenchymal stem cell differentiation” (priority 2014, dated 2018)

Key:
[1] = test system: mesenchymal stem cell; assay: DMMB quantification of glycosaminoglycans in the bioreactor medium; assay type: cell-based, Wistar rats; settings: tri-copolymer scaffold, kartogenin, day 7, 14 and 21
Protocol: 1,9-dimethylmethlene blue (DMMB) method was used for quantifying Glycosaminoglycans (GAGs). 16 mg of DMMB was dissolved in 5 mL of 95% ethanol and diluted with 3 mL of formic acid and 25.6 mL of NaOH. Double distilled water was used to adjust the final volume to 1 liter, and the solution was maintained at pH 3.5.
250 μL of the DMMB solutions were added into 40 μL of the diluted sample solutions which were from different time points. After reacted in the dark for 10 min, the absorbance of 520 nm was detected and then the GAGs concentration was determined by interpolated onto the standard curve calculated by the chondroitin-6-sulfate.
The GAGs concentrations in the medium were determined by the DMMB method through collecting samples from the bioreactor at different time points.

[2] = test system: mesenchymal stem cell; assay: Hematoxylin/Eosin histological examination of cell-material complex sections, bioreactor culture; assay type: cell-based, Wistar rats; settings: tri-copolymer scaffold
Protocol: After combining the gelatin-hyaluronan-chondroitin tri-copolymer and the stem cell, the coculture construct was seeded and transferred into the dynamic bioreactor for culturing. The morphology of the differentiated cells were stained with Hematoxylin/Eosin, and in the present example, the cell-material complex sections were examined at 3 time points: Day 0, 7 and 21.

[3] = test system: mesenchymal stem cell; assay: Alcian Blue stain of mesenchymal stem cell condensation and glycosaminoglycan secretion, 2-dimensional plate culture; assay type: cell-based, Wistar rats; settings: 3 and 7 days, vs control without kartogenin
Excerpt: The Isolation and Culture of the Mesenchymal Stem Cell • 1. The cell source was taken from the four limbs of two-week old Wistar rats. Rats were sacrificed and immersed in 75% alcohol. The operation process for taking four limbs was under half sterile environment. • 2. During the cellular collecting processes, sterilized equipments were used in the whole processes. Both tibia and femur of the lower limb were taken. The tip of the scissor was used to separate the bone and the muscle. The knee joints and the hip joints were taken down along the bones; the part near the ankle was difficult to remove completely, so a direct cut was made close to the ankle joints. Only the humerus in upper limb had enough amounts of cells, so just took humerus and the scapula was processed as ankle joints in having a direct cut. Finally the limbs were soaked and washed in phosphate buffer solution (PBS) with 10% antibiotics (penicillin 10,000/ml, streptomycin 10 mg/ml, amphotericin-B 0.025 mg/ml). • 3. The muscle on the limbs was clearly removed under solution, the protruding parts of the two ends were cut out and soaked into new PBS (containing 1% antibiotics). Cells were washed out by syringe filled with PBS. • 4. PBS containing cells was placed in centrifuge tubes and centrifugated at 2000 rpm for 5 minutes. The red blood cells were suspended cells which adhered to and flowed with the mesenchymal stem cell. […]

[4] = test system: mesenchymal stem cell; assay: Real-time PCR gene expression of mesenchymal stem cell, 2-dimensional plate culture; assay type: cell-based, Wistar rats
Excerpt: The Isolation and Culture of the Mesenchymal Stem Cell • 1. The cell source was taken from the four limbs of two-week old Wistar rats. Rats were sacrificed and immersed in 75% alcohol. The operation process for taking four limbs was under half sterile environment. • 2. During the cellular collecting processes, sterilized equipments were used in the whole processes. Both tibia and femur of the lower limb were taken. The tip of the scissor was used to separate the bone and the muscle. The knee joints and the hip joints were taken down along the bones; the part near the ankle was difficult to remove completely, so a direct cut was made close to the ankle joints. Only the humerus in upper limb had enough amounts of cells, so just took humerus and the scapula was processed as ankle joints in having a direct cut. Finally the limbs were soaked and washed in phosphate buffer solution (PBS) with 10% antibiotics (penicillin 10,000/ml, streptomycin 10 mg/ml, amphotericin-B 0.025 mg/ml). • 3. The muscle on the limbs was clearly removed under solution, the protruding parts of the two ends were cut out and soaked into new PBS (containing 1% antibiotics). Cells were washed out by syringe filled with PBS. • 4. PBS containing cells was placed in centrifuge tubes and centrifugated at 2000 rpm for 5 minutes. The red blood cells were suspended cells which adhered to and flowed with the mesenchymal stem cell. The supernatant was carefully removed. • 5. Hank's Balanced Salt Solution (HBSS) was added into the centrifugated cells. After mixing up, 5 mL of HBSS mixed with cells was added into 5 mL of Ficoll separating solution and centrifugated at 18-20° C. at the speed 300 g for 40 minutes. • 6. After centrifugation, the supernatant was sucked out; large amount of PBS was added to dilute the Ficoll separating solution and washed for 2-3 times. • 7. Medium was added into the centrifugated cells and mixed up for culturing. Dulbecco's Modified Eagle Medium (DMEM) with 10% fetal bovine serum (FBS) was used for the stem cell medium in this example. • 8. After the cells attached, the medium was changed every 2-3 days. When the cells was fully confluent, subcultured as the proportion of one to three or one to four.
(§1) The gene expression of the mesenchymal stem cell was examined by Real-time PCR. The results were used for determining the medium formulation in the following scaffold culture and bioreactor culture. The primers used in the present invention were shown as the following table:
The cells cultured in DMEM with 10% FBS were used as the control group.

[5] = test system: hMSC; settings: cited from earlier work
[6] = test system: mesenchymal stem cell; assay: Safranin-O staining of glycosaminoglycans, bioreactor culture; assay type: cell-based, Wistar rats; settings: tri-copolymer scaffold, kartogenin, 21 days
Excerpt: Glycosaminoglycans (GAGs) were mainly the content of the extracellular matrix secreted by the chondrocyte.
The cells were distributed on the tri-copolymer scaffold at the beginning of culture. Red was for Safranin-O staining. The Safranin-O staining of the background was from the chondroitin-6-sulfate of the material itself which was one of the Glycosaminoglycans. […] After the cell culturing for 21 days, the cell mass was examined, of which size was about 100 μm.

[7] = test system: mesenchymal stem cell; assay: Immunohistochemical staining of aggrecan and type II collagen, bioreactor culture; assay type: cell-based, Wistar rats; settings: tri-copolymer scaffold, kartogenin
Protocol: The aggrecan and the type II collagen were characteristic proteins of the cartilage cells. The coculture structure was cultured in the dynamic bioreactor and the expressions of the proteins were presented by immunohistochemical staining. The samples culturing under the dynamic culture environment for 7, 14, and 21 days were washed in PBS, immersed in 2.5% formaldehyde for 30 minutes for immobilization. The samples were paraffin-embedded and sectioned into 5 μm. The immunohistochemistry was used to examine the characteristic protein of the cartilage cells which comprises the aggrecan and the type II collagen. After dewaxing by xylene and rehydration, the activity of endogenous peroxidase was cleaned by Hydrogen Peroxide Block reagent (ab80436, abcam, MA, USA). After antigen was repaired, non-specific background protein was bound by Protein Block (ab80436). The primary antibodies (rabbit anti-collagen-II (ab53047), rabbit anti-aggrecan (GTX86902)) of type II collagen and aggrecan were reacted with the tissue slices at 4° C. for 12 hr. After rinsing, the slices were bound with horseradish peroxidase (HRP) conjugated secondary antibody (goat anti-rabbit HRP conjugate). […] Last, the hematoxylin was incubated with the slices at room temperature for 30 minutes for counterstain.
In the present example, the cell-material complex sections were examined at 3 time points: Day 0, 7 and 21. […]

[8] = test system: mesenchymal stem cell; assay: Real-time PCR gene expression of mesenchymal stem cell in tri-copolymer scaffold with kartogenin, bioreactor culture; assay type: cell-based, Wistar rats
Excerpt: as §1
(§2) The mesenchymal stem cells used in the present invention were in the third generation of subculture to ensure the maintenance of the cell morphology. The proliferated stem cells were dissociated by trpsin, collected and condensed to 10^7 cells/mL. 50 μL of the cell solution was seeded on each dry scaffold. The cells were divided into static culture group and bioreactor culture group. The former changed the medium every 2 to 3 days and in the latter, after cells seeding into the scaffold and culturing for one day, it was moved into the bioreactor.
After culturing the tri-copolymer material, the mesenchymal stem cell and kartogenin in the bioreactor for 7, 14 and 21 days, mRNA genes expression were examined. In this example, the control group was the mesenchymal stem cell culturing […].
After culturing in the bioreactor for 7, 14, and 21 days, mRNA gene expression was examined. In this example, the control group was the mesenchymal stem cell culturing on the 2-dimensional plate for 1 day.

[9] = test system: mesenchymal stem cell; assay: Live and death staining (Calcein-AM/PI) of mesenchymal stem cell in tri-copolymer scaffold, static culture; assay type: cell-based, Wistar rats; settings: 1.0 kartogenin, 7 days, vs control group
Protocol: as §2
After the combination of the gelatin-hyaluronan-chondroitin tri-copolymer with the mesenchymal stem cell, the differentiating effects under the 3-dimensional culture were confirmed. Through the live and death staining, the cell condensation during early differentiation stage was examined at the presence of 1.0 kartogenin. […] Apoptosis was the process during chondrogenic differentiation of stem cell.
The fluorescent staining of Calcein-AM and Propidium Iodide (PI) was used to examine the survival distribution of the cells in the scaffold. The former was lipophilic which could easily enter into the living cell and being hydrolyzed to produce fluorescent compounds, calcein, so that only the living cell could be stained with Calcin-AM. […] When PI bound to a DNA double helix, it emitted red fluorescence. […]

[10] = day 7, control MSC on 2-dimensional plate 1 day
[11] = day 14, control MSC on 2-dimensional plate 1 day
[12] = day 21, control MSC on 2-dimensional plate 1 day

Compound: O=C(O)c1ccccc1C(=O)Nc1ccc(-c2ccccc2)cc1 [kartogenin]
- secretion of GAGs into the medium (DMMB method) [1]: increased
- cell condensation (Hematoxylin/Eosin section) ([2]; kartogenin induction, day 7): cell condensation was presence
- lacunae structure (Hematoxylin/Eosin section) ([2]; kartogenin, day 21): lacunae like structure was examined
- size of the cell mass (Hematoxylin/Eosin section) ([2]; kartogenin, day 21): about 100 μm
- early condensation and secretion of glycosaminoglycans (Alcian Blue stain) ([3]; 0.1 μM kartogenin): promoted the condensation phenomenon
- early condensation and secretion of glycosaminoglycans (Alcian Blue stain) ([3]; 1.0 μM kartogenin): promoted the condensation phenomenon
- TIMPs expression compared to the control group ([4]; 0.1 μM kartogenin, day 14): 0.91±0.04 fold
- Sox-9 gene expression relative to the control group ([4]; 1.0 μM kartogenin, 7 days): 1.66±0.27 fold
- Aggrecan gene expression ([4]; 1.0 μM kartogenin, 7 days, higher than 0.1 μM group (p<0.001)): 3.99±0.63 fold
- Aggrecan gene expression compared to the untreated group ([4]; 1.0 μM kartogenin, 14 days): 6.44±0.35 fold
- Sox-9 gene expression ([4]; 1.0 μM kartogenin, day 3 and day 7): up-regulated
- Sox-9 gene expression ([4]; 1.0 μM kartogenin, day 14): 0.56±0.04 fold
- TIMPs expression compared to the control group ([4]; 1.0 μM kartogenin, day 14): 1.63±0.249 fold
- EC50 [5]: 0.1 µM
- accumulation of GAGs (Safranin-O staining) [6]: accumulation of the GAGs was examined on the surface of the cell mass
- size of the cell mass (Safranin-O/Hochest staining) [6]: about 100 μm
- type II collagen expression (immunohistochemical staining) ([7]; day 7 and 21, not distinct at day 0): positively stained
- aggrecan expression (immunohistochemical DAB staining) ([7]; day 21 compared with day 7): higher expression of aggrecan
- Aggrecan expression compared to the control group ([8]; day 7): 11.66±4.75 fold
- Col2a1 gene expression compared to the control group ([8]; day 7): 13.6±4.7 fold
- TIMPs expression ([8]; day 7): 5.60±1.24 fold
- Sox-9 expression ([8]; day 7, control MSC cultured 1 day): 2.51±0.90 fold
- Col1a1 expression compared to the control group [8, 10]: 13.19±2.90 fold
- Col10a1 expression [8, 10]: 39.23±9.39 fold
- Runx 2 expression compared to the control group [8, 10]: 8.60±3.55 fold
- Aggrecan expression compared to the control group ([8]; day 14): 12.33±6.3 fold
- Col2a1 gene expression compared to the control group ([8]; day 14): 28.26±11.64 fold
- TIMPs expression ([8]; day 14): 5.79±5.25 fold
- Sox-9 expression ([8]; day 14, control MSC cultured 1 day): 3.91±2.12 fold
- Col1a1 expression compared to the control group [8, 11]: 17.26±1.38 fold
- Col10a1 expression [8, 11]: 36.08±26.00 fold
- Runx 2 expression compared to the control group [8, 11]: 9.89±3.82 fold
- Aggrecan expression compared to the control group ([8]; day 21): 9.74±3.83 fold
- Col2a1 gene expression compared to the control group ([8]; day 21): 40.32±9.13 fold
- TIMPs expression ([8]; day 21): 3.94±1.08 fold
- Sox-9 expression ([8]; day 21, control MSC cultured 1 day): 3.06±0.99 fold
- Col1a1 expression compared to the control group [8, 12]: 13.14±6.07 fold
- Col10a1 expression [8, 12]: 5.56±5.23 fold
- Runx 2 expression compared to the control group [8, 12]: 7.35±1.96 fold
- cell condensation (live and death staining) [9]: cell condensation was occurred
- proportion of cell death (live and death staining) [9]: higher
